Data on eleven compounds can be found in publication PMC11357404, “Cytotoxic and Anti-HSV-1 Effects of Caulerpin Derivatives” (Molecules, 2024).

For orientation: Emax means the greatest response seen or fitted, relative to the assay's reference. Usually CC50 stands for the concentration giving 50% cytotoxicity. In general, EC50 refers to the concentration needed to bring the measured effect to its halfway point. The viability is a per cent measure of how many cells are alive, often set against a control.

Entries after “also recorded” stand apart in the source; their conditions may differ.

For data set [1], the system named is Herpes simplex virus type 1 (HSV-1) in Vero cells. Description: Antiviral screening, treatment concomitant to infection (MTT). The class given is cell-based. As to conditions: HSV-1 MOI 0.2, compound at CC20, 72 h; for inhibition of HSV-1-induced cytotoxicity (in words): versus untreated control or acyclovir. As to the method:
(§1) The antiviral screening tests were performed following the method of Cheng et al., with modifications. For the anti-HSV-1 (herpes simplex virus type 1) activity of caulerpin analogs, Vero cells were used under the same conditions as described for the cytotoxicity test. The assay was divided into two steps:
Cells were infected with HSV-1 (MOI 0.2) and treated with the compound’s CC20 (concentration toxic to 20% of cells). The plates were incubated at 37 °C in 5% CO2 for 72 h, and cell viability was assessed using the MTT method.
(§2) In both assays, wells containing only cell medium were used as controls for cell growth. For positive control, wells containing medium and virus were used, and wells containing medium, virus, and acyclovir were used as a negative control.
(§3) The inhibition ratio was calculated using the following equation. % Inhibition=(OD treatment−OD positivecontrol)/(OD cell growth−OD positive control)×100 where OD = Optical density (absorbance).

The test system is the same in data set [2]. The data set is described as follows: Antiviral screening, post-infection treatment (MTT). The class given is cell-based. As to conditions: HSV-1 MOI 0.2 for 1 h, compound at CC20, 72 h, versus infected untreated control or acyclovir. As to the method:
as §1
After removing the culture medium, the HSV-1 (MOI 0.2) was added to the wells containing cells for 1 h. After this time, the cells were washed, and the tested compounds and acyclovir were added to their CC20. The plates were incubated at 37 °C in 5% CO2 for 72 h and cell viability was assessed using the MTT method.
as §2, §3

For a further data set, the system named is cancer cell. Set-up: method as in PMID 25237346. As to conditions: caulerpin extracted from C. peltata; cited from earlier work.
Data set [3] concerns Vero cells. The data set is described as follows: Cytotoxicity, MTT assay in Vero cells. As to conditions: Chlorocebus sabaeus; Vero cells, MTT, 72 h, 200 to 1800 µM. It counts as cell-based, Cercopithecus aethiops. As to the method: (§4) The method of Cheng et al. was followed with modifications to evaluate the cytotoxicity of caulerpin analogs 1, 2, 3, 4, 5, 7, 8, 9, 10, and 11 at concentrations ranging from 200 to 1800 µM. Vero cells (African green monkey kidney cells Cercopithecus aethiops; ATCC, Manassas, VA, USA) grown in Dulbecco’s modified medium (DMEM) supplemented with 5% fetal bovine serum (FBS), […], and 2.5 µg/mL gentamicin at 37 °C in 5% CO2 were used. Each test sample was diluted in DMEM containing 2% fetal bovine serum at six different concentrations. Vero cells were plated at a concentration of 2 × 10^4 cells/well and incubated for 24–36 h. […] After this time, the medium was discarded and 20 μL of MTT solution was added to each well. The plates were incubated for four hours at 37 °C. Subsequently, the supernatant was removed, and 150 μL of DMSO was added to each well to dissolve the formazan crystals. The plates were shaken for 10 min, followed by absorbance reading in an ELISA microplate reader at a wavelength of 540 nm.
(§5) The MTT assay was validated by constructing a trend line using linear regression in the GraphPad Prism Version 6.01 program. Assays that presented R^2 greater than 0.70 were considered appropriate. After the validation of the MTT assay, the CC50 and CC20 values of each tested analog were calculated.

A short description of data set [4]: Cytotoxicity, MTT assay in Vero cells. The note with it: African green monkey (Cercopithecus aethiops); for CC50 at 72 h: Absolute CC50, Vero cells, MTT; for viability at 72 h: Vero cells, cell viability curves (Figure 2), read-out: maximum percentage of cell viability. It counts as cell-based, Cercopithecus aethiops. As to the method: as §4, §5
Another data set has as its system Chikungunya virus. As to conditions: cited from earlier work.
In data set [5] the test system is Vero cells. Set-up: method as in doi:10.1590/S0102-695X2012005000072. As to conditions: cited from earlier work.

Consider `Nc1nc2c(ncn2COCCO)c(=O)[nH]1` [Acyclovir, reference compound], for which, in data set [1] (Vero cells), the “inhibition percentage of HSV-1-induced cytotoxicity” value turned out to be 52.79%.
As to `COC(=O)/C1=C/c2c([nH]c3ccccc23)/C(C(=O)OC)=C\c2c1[nH]c1ccccc21` [Analog 1, (6E,13E)-dimethyl-5,12-dihydrocycloocta[1,2b:5,6-b′]diindol-6,13-dicarboxylate], the “inhibition of HSV-1-induced cytotoxicity (in words)” value (from here on “inhibition … (in words)”) in data set [2] is “higher percentages of cellular inhibition compared to the control group”. Also, the “inhibition of cancer cell growth” value with cancer cell is on record as 12%. The compound also registered an Emax in the data set with Vero cells [3] of 52.7 ± 1.8%. For the same compound, in data set [4], the CC50 at 72 h amounted to 688 ± 35.2 µM. Moreover, the EC50 with Chikungunya virus (Chikungunya virus, read-out: EC50 inhibitory effect) was 0.8 µM. Also, the “inhibition of viral infectivity (virucidal activity)” value in the data set with Chikungunya virus (at 5 μM concentration) is listed as roughly 90%. The CC50 with Vero cells [5] is 1180 µM.
As to `COC(=O)C1=Cc2c(n(C)c3ccccc23)C(C(=O)OC)=Cc2c1n(C)c1ccccc21` [Analog 2, (6E,13E)-Dimethyl-5,12-dimethyl-5,12 dihydrocycloocta[1,2 b: 5,6-b′]diindol-6,13-dicarboxylate], the Emax with Vero cells [3] was found to be 68.4 ± 0.2%. In data set [4], the midpoint of cytotoxicity, the CC50 at 72 h, lay at 524 ± 19.3 µM and the viability at 72 h was less than 75%.
For the compound `CCn1c2c(c3ccccc31)C=C(C(=O)OC)c1c(c3ccccc3n1CC)C=C2C(=O)OC` [Analog 3, (6E,13E)-Dimethyl-5,12-diethyl-5,12 dihydrocycloocta[1,2 b: 5,6-b′]diindole-6,13-dicarboxylate], the “inhibition … (in words)” value in data set [2] is “higher percentages of cellular inhibition compared to the control group”; in data set [1], “significant inhibition”. This compound also registered an Emax in the data set on Vero cells [3] of 51.5 ± 0.9%. This compound gave a CC50 at 72 h in data set [4] of 548 ± 38.8 µM.
`C=CCn1c2c(c3ccccc31)C=C(C(=O)OC)c1c(c3ccccc3n1CC=C)C=C2C(=O)OC` [Analog 4] gave an Emax with Vero cells [3] of 70.1 ± 1.1%. In addition, in data set [4], the CC50 at 72 h is 628 ± 69.8 µM and the viability at 72 h was less than 75%.
As for `COC(=O)C1=Cc2c(n(Cc3ccccc3)c3ccccc23)C(C(=O)OC)=Cc2c1n(Cc1ccccc1)c1ccccc21` [Analog 6, (6E,13E)-Dimethyl-5,12-dinzyl 5,12-dihydrocycloocta[1,2b:5,6-b′]diindol-6,13-dicarboxylate], the “inhibition … (in words)” value was “higher percentages of cellular inhibition compared to the control group” in data set [2] and “significant inhibition” in data set [1]. The compound also had an Emax in the data set with Vero cells [3] of 74.1 ± 1.8%. The same compound came in with a CC50 at 72 h in data set [4] of 891 ± 87.8 µM.
Regarding `O=C(O)C1=Cc2c([nH]c3ccccc23)C(C(=O)O)=Cc2c1[nH]c1ccccc21` [Analog 9, (6E,13E)-5,12-Dihydrocycloocta[1,2b:5,6-b′]diindol-6,13-dicarboxylic acid], the Emax in the data set with Vero cells [3] came to 62.6 ± 0.7%. In data set [4], this compound yielded a CC50 at 72 h of 1040 ± 62.4 µM.
As to `Cn1c2c(c3ccccc31)C=C(C(=O)O)c1c(c3ccccc3n1C)C=C2C(=O)O` [Analog 10, (6E,13E)-5,12-Dimethyl-5-dihydrocycloocta[1,2b:5,6-b’]diindol-6,13-dicarboxylic acid], in data set [2], the “inhibition … (in words)” value is recorded as “higher percentages of cellular inhibition compared to the control group; also recorded: antiviral effects statistically similar to acyclovir”. Besides, in the data set on Vero cells [3], the Emax stood at 71.8 ± 0.3%. The same compound registered a CC50 at 72 h in data set [4] of 679 ± 38.3 µM.
Consider `CCn1c2c(c3ccccc31)C=C(C(=O)O)c1c(c3ccccc3n1CC)C=C2C(=O)O` [Analog 11, (6E,13E)-5,12-Diethyl-5,12-dihydrocycloocta[1,2b:5,6-b′]diindol-6,13-dicarboxylic acid], for which the “inhibition … (in words)” value was “higher percentages of cellular inhibition compared to the control group; also recorded: antiviral effects statistically similar to acyclovir” in data set [2] and “significant inhibition; also recorded: efficacy similar to the antiviral agent acyclovir” in data set [1]. Further, the Emax in the data set with Vero cells [3] is 62.7 ± 0.8%. The same compound returned a CC50 at 72 h in data set [4] of 1000 ± 41.6 µM.
In the case of `C=CCn1c2c(c3ccccc31)C=C(C(=O)O)c1c(c3ccccc3n1CC=C)C=C2C(=O)O` [Analog 12, (6E,13E)-5,12-Diallyl-5,12-dihydrocycloocta[1,2b:5,6-b′]diindol-6,13-dicarboxylic acid], the “inhibition … (in words)” value in data set [2] is listed as “higher percentages of cellular inhibition compared to the control group”; in data set [1], “significant inhibition; also recorded: efficacy similar to the antiviral agent acyclovir”. This compound returned an Emax with Vero cells [3] of 44.5 ± 1.3%. In data set [4], the CC50 at 72 h was 664 ± 55.3 µM.
`O=C(O)C1=Cc2c(n(Cc3ccccc3)c3ccccc23)C(C(=O)O)=Cc2c1n(Cc1ccccc1)c1ccccc21` [Analog 13, (6E,13E)-5,12-Dibenzyl-5,12-dihydrocycloocta[1,2 b: 5,6-b′]diindol-6,13-dicarboxylic acid] had an Emax in the data set with Vero cells [3] of 41 ± 1.2%. The CC50 at 72 h in data set [4] was 494 ± 51.4 µM.
